Reference: patent publication US12098116B2, “Crystalline prostacyclin (IP) receptor agonist and uses thereof” (United Therapeutics Corporation, priority 2022, dated 2024)
In brackets after ≈: the same amount, converted by molar mass. Like-named read-outs stand apart in the source and are kept apart here. Each block holds one compound with its values, some of them ahead of it.

What was measured:
IP receptor = IP receptor (Homo sapiens, UniProt P43119); settings: head-to-head in vitro; cited from earlier work
[1] = healthy volunteer population, cited from earlier work
[2] = tested on: human pulmonary artery smooth muscle cell (PASMC); settings: head-to-head in vitro; cited from earlier work
pulmonary artery = settings: head-to-head in vitro; cited from earlier work
[3] = Solvent solubility study of ralinepag; type: physicochemical; settings: thermodynamic from solid
Procedure: To prepare amorphous material for solubility testing, 330 mg of ralinepag was dissolved in 33 mL tert-butanol (with gentle heating applied via a heatgun) before being split evenly into 33 vials (˜10 mg of ralinepag per sample). […] One vial of solid was analyzed by XRPD to confirm that ralinepag had been rendered amorphous. However, as in Example 2g, a poorly crystalline Pattern 2 was observed. 32 solvents and solvent systems were added to 32×10 mg of lyophilized ralinepag in 50 μL aliquots for the first 300 μL or until complete dissolution was noted. If complete dissolution was not observed, 100 μL aliquots were added thereafter up to 1 mL total solvent. Between each addition, the mixture was manually shaken for a few seconds and if complete dissolution was not apparent, the mixture was heated to about 40° C. and checked again. Where complete dissolution occurred, the solvent was allowed to evaporate at ambient temperature. Where complete dissolution was not observed, the solids were isolated via centrifuge filtration. Recovered solids were analyzed by XRPD.

[4] = Solid form conversion on drying or heating, followed by XRPD; type: physicochemical
[5] = Dynamic Vapour Sorption (DVS); type: physicochemical
Procedure: Approximately, 10 mg of sample was placed into a mesh vapor sorption balance pan and loaded into a DVS-1/DVS Intrinsic/DVS Advantage dynamic vapor sorption balance by Surface Measurement Systems. The sample was subjected to a ramping profile from 40-90% relative humidity (RH) at 10% increments, maintaining the sample at each step until a stable weight had been achieved (dm/dt 0.004%, minimum step length 30 min, maximum step length 500 min) at 25° C. After completion of the sorption cycle, the sample was dried using the same procedure to 0% RH and then a second sorption cycle back to 40% RH. Two cycles were performed. The weight change during the sorption/desorption cycles were plotted, allowing for the hygroscopic nature of the sample to be determined.

[6] = cited from earlier work
[7] = cited from earlier work; remark: listed apart in the source

IP receptor, sequence (P43119 whole entry): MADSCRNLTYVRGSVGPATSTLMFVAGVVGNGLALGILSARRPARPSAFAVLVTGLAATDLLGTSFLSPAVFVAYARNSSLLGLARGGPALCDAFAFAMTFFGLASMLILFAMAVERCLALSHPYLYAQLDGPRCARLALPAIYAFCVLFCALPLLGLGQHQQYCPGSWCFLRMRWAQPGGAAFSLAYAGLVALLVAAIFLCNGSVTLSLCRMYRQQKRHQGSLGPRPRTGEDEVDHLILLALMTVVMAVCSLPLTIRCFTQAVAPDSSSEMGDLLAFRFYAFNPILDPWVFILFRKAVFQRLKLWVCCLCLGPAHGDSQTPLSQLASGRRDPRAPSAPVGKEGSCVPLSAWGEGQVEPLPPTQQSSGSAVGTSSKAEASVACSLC

Compound: O=C(O)COC[C@H]1CC[C@H](COC(=O)N(c2ccccc2)c2ccc(Cl)cc2)CC1 [ralinepag, 2-([(1r,4r)-4-(((4-chlorophenyl)(phenyl)carbamoyloxy)methyl)-cyclohexyl]methoxy)acetic acid]
Increase of cellular cAMP levels compared with selexipag (IP receptor): more potent and efficacious than selexipag
Variability in plasma concentrations between doses (peak:trough ratio) ([1]; compared with selexipag): less variability
t1/2 compared with selexipag (and its active metabolite MRE-269) ([1]; single- and multiple-dose studies): longer t1/2 than selexipag
Inhibition of human PASMC proliferation compared with selexipag [2]: better inhibition
Pulmonary artery vasodilation compared with selexipag (pulmonary artery): improved
solubility ([3]; aqueous with cosolvent or surfactant or cyclodextrin, solvent ethanol/water (48:52% v/v), read-out: Estimated Solubility): < 10 mg/mL
solubility ([3]; organic solvent or mixture, in 29 of the 32 solvent systems, poorly crystalline ralinepag, read-out: Solubility, summary of the screen): ≥ 10 mg/mL
solubility ([3]; organic solvent or mixture, solvent 1,1-dimethoxymethane, heated to 40° C., lyophilized poorly crystalline material, read-out: Estimated Solubility): 50 mg/mL (≈ 116 mM)
solubility ([3]; organic solvent or mixture, solvent 1,2-dichloroethene, heated to 40° C., read-out: Estimated Solubility): 200 mg/mL (≈ 463 mM)
solubility ([3]; organic solvent or mixture, solvent 1,4-dioxane, heated to 40° C., read-out: Estimated Solubility): 200 mg/mL (≈ 463 mM)
solubility ([3]; organic solvent or mixture, solvent 1-butanol, heated to 40° C., read-out: Estimated Solubility): 50 mg/mL (≈ 116 mM)
solubility ([3]; organic solvent or mixture, solvent 1-propanol, heated to 40° C., read-out: Estimated Solubility): 50 mg/mL (≈ 116 mM)
solubility ([3]; organic solvent or mixture, solvent 2-ethoxyethanol, heated to 40° C., read-out: Estimated Solubility): 200 mg/mL (≈ 463 mM)
solubility ([3]; organic solvent or mixture, solvent 2-methyl-1-propanol, heated to 40° C., read-out: Estimated Solubility): 50 mg/mL (≈ 116 mM)
solubility ([3]; organic solvent or mixture, solvent 2-methyltetrahydrofuran, read-out: Estimated Solubility): 200 mg/mL (≈ 463 mM)
solubility ([3]; organic solvent or mixture, solvent 2-propanol, heated to 40° C., read-out: Estimated Solubility): 50 mg/mL (≈ 116 mM)
solubility ([3]; organic solvent or mixture, solvent N,N-dimethylacetamide, read-out: Estimated Solubility): 200 mg/mL (≈ 463 mM)
solubility ([3]; organic solvent or mixture, solvent N,N-dimethylformamide, read-out: Estimated Solubility): 200 mg/mL (≈ 463 mM)
solubility ([3]; organic solvent or mixture, solvent N-methyl-2-pyrrolidone, read-out: Estimated Solubility): 200 mg/mL (≈ 463 mM)
solubility ([3]; organic solvent or mixture, solvent acetone, read-out: Estimated Solubility): 200 mg/mL (≈ 463 mM)
solubility ([3]; organic solvent or mixture, solvent acetonitrile, heated to 40° C., read-out: Estimated Solubility): 40 mg/mL (≈ 92.6 mM)
solubility ([3]; organic solvent or mixture, solvent anisole, read-out: Estimated Solubility): 200 mg/mL (≈ 463 mM)
solubility ([3]; organic solvent or mixture, solvent benzyl alcohol, read-out: Estimated Solubility): 200 mg/mL (≈ 463 mM)
solubility ([3]; organic solvent or mixture, solvent butyl acetate, heated to 40° C., read-out: Estimated Solubility): 50 mg/mL (≈ 116 mM)
solubility ([3]; organic solvent or mixture, solvent dimethylsulfoxide, heated to 40° C., read-out: Estimated Solubility): 200 mg/mL (≈ 463 mM)
solubility ([3]; organic solvent or mixture, solvent ethanol/water (93:7% v/v), heated to 40° C., read-out: Estimated Solubility): 100 mg/mL (≈ 232 mM)
solubility ([3]; organic solvent or mixture, solvent ethanol/water (98.5:1.5% v/v), read-out: Estimated Solubility): 100 mg/mL (≈ 232 mM)
solubility ([3]; organic solvent or mixture, solvent ethanol, heated to 40° C., read-out: Estimated Solubility): 100 mg/mL (≈ 232 mM)
solubility ([3]; organic solvent or mixture, solvent ethyl acetate, heated to 40° C., read-out: Estimated Solubility): 100 mg/mL (≈ 232 mM)
solubility ([3]; organic solvent or mixture, solvent heptane, read-out: Estimated Solubility): < 10 mg/mL
solubility ([3]; organic solvent or mixture, solvent isopropyl acetate, heated to 40° C., read-out: Estimated Solubility): 66.7 mg/mL (≈ 154 mM)
solubility ([3]; organic solvent or mixture, solvent methanol, heated to 40° C., read-out: Estimated Solubility): 200 mg/mL (≈ 463 mM)
solubility ([3]; organic solvent or mixture, solvent methylethyl ketone, heated to 40° C., read-out: Estimated Solubility): 200 mg/mL (≈ 463 mM)
solubility ([3]; organic solvent or mixture, solvent methylisobutyl ketone, heated to 40° C., read-out: Estimated Solubility): 100 mg/mL (≈ 232 mM)
solubility ([3]; organic solvent or mixture, solvent tert-butylmethyl ether, heated to 40° C., read-out: Estimated Solubility): 25 mg/mL (≈ 57.9 mM)
solubility ([3]; organic solvent or mixture, solvent tetrahydrofuran, heated to 40° C., read-out: Estimated Solubility): 200 mg/mL (≈ 463 mM)
solubility ([3]; organic solvent or mixture, solvent toluene, heated to 40° C., read-out: Estimated Solubility): 14.3 mg/mL (≈ 33.1 mM)
solubility ([3]; solvent water, read-out: Estimated Solubility): < 10 mg/mL

Compound: CCCCC[C@H](O)/C=C/[C@@H]1[C@H]2C/C(=C/CCCC(=O)O)O[C@H]2C[C@H]1O [epoprostenol]
Stability at room temperature [6]: unstable at room temperature

Compound: CC(C)N(CCCCOCC(=O)NS(C)(=O)=O)c1cnc(-c2ccccc2)c(-c2ccccc2)n1 [Selexipag]
Effect on PVR ([7]; after 17 weeks of treatment): reduce PVR
Reduction in a composite morbidity and mortality endpoint ([7]; in vivo): 40%

Continued, in another order:

Solid form conversion upon drying ([4]; made from NMP/water, upon drying (even with air drying)): converts to Form 1
Compound: O=C(O)COC[C@H]1CC[C@H](COC(=O)N(c2ccccc2)c2ccc(Cl)cc2)CC1 [Pattern 4]
Solid form conversion upon drying ([4]; made from DMA/water): converts to a predominantly amorphous form with some Form 1 peaks present

Hygroscopic nature ([5]; DVS, 25° C.): non-hygroscopic
XRPD of the solid after DVS analysis ([5]; after DVS between 0% and 90% RH): unchanged
Reversible water uptake ([5]; between 0% and 90% RH, 25° C.): 0.1 % (w/w)
Compound: O=C(O)COC[C@H]1CC[C@H](COC(=O)N(c2ccccc2)c2ccc(Cl)cc2)CC1 [Form 1]

Solid form after drying (XRPD) ([4]; dried under vacuum at 40° C. for approximately 21 h): retained
Solid form conversion on heating ([4]; on heating): converts to Form 1
Compound: O=C(O)COC[C@H]1CC[C@H](COC(=O)N(c2ccccc2)c2ccc(Cl)cc2)CC1 [Pattern 2]
